The source of these data is patent EP4352072B1, “SYNTHESIS OF A NOVEL GLUCOSE-CONJUGATED METHOTREXATE AND ITS APPLICATION FOR THE TREATMENT AND PREVENTION OF NEOPLASMS” (Uniwersytet Medyczny Im. Piastów Slaskich We Wroclawiu, priority 2021, dated 2022).

Where two headings read alike, the source gives them in different places. Some results are limits rather than exact numbers.

The term IC50 denotes the midpoint of a concentration-inhibition curve.

One series deals with MCF-7 (breast). The series is described as follows: MTT cytotoxicity test, MCF-7. The class given is cell-based. Conditions: Homo sapiens, MCF7, incubation 72 hours, read-out: IC50 values (µM) for individual cell lines MCF-7 (breast). How it is done: (§1) Cells were seeded in a 96-well plate at 5-10 x 10^3 cells per well. After 24 hours, the culture medium was decanted and 100 µL of fresh medium was added to the control wells, while the medium with test compounds dissolved in DMSO was added to the test wells. The plates were wrapped in foil and placed in an incubator. After 72 hours of incubation, the medium was decanted and 100 µL of a solution of yellow soluble 3-(4,5-dimethyl-2-thiazolyl)-2,5-diphenyl-2H-tetrazolium bromide (MTT) at a concentration of 0.5-1 mg/mL was added. After 4 hours of incubation, the MTT solution was decanted and 50 µL/well of DMSO was added. After 3 hours, the optical density of the dissolved formazan was analyzed colorimetrically in a BioTek plate reader. […] Since living cells reduce MTT to formazan, the optical density (OD) is highest in the control (C) wells which accounted for 100% of cell viability. Viablity in wells incubated with compound (COMP) was calculated using the formula: X = 100% × OD COMP/OD C [formula] The results reported are the mean value of triplicate cytotoxicity analysis. Cell viability studies using the MTT assay on cell lines of numerous cancers, including breast cancer, colorectal cancer, lung cancer, skin cancer, and bone sarcoma have shown that Glu-MTX is cytotoxic in vitro. […]
(In general: Tetrazolium assays rely on reduction of a dye to a coloured formazan, in cell work by metabolically active cells.)

For another series, the system named is DLD-1 (large intestine). In words: MTT cytotoxicity test, DLD-1. The format is cell-based. The settings on record: Homo sapiens, incubation 72 hours, read-out: IC50 values (µM) for individual cell lines DLD-1 (large intestine). As for the experimental part: as §1
A further series relates to MG-63 (bone sarcoma). In words: MTT cytotoxicity test, MG-63. Conditions: Homo sapiens, incubation 72 hours, read-out: IC50 values (µM) for individual cell lines MG-63 (bone sarcoma). The class given is cell-based. How it is done:
as §1

The subject of series [1] is WI38 (healthy fibroblasts). In words: MTT cytotoxicity test, WI38. The format is cell-based. The settings on record: Homo sapiens, WI-38, incubation 72 hours, read-out: IC50 values (µM) for individual cell lines WI38 (healthy fibroblasts). How it is done:
as §1

Series [2] has as its system MCF-7 breast cancer tumor cells. In words: MS analysis of intracellular accumulation, MCF-7. The format is cell-based. The settings on record: human, 2 h, 10 µM. How it is done:
(§2) Cells were seeded in a 6-well plate at 2.5 x 10^5 cells/well and 1 mL/well. When the cells reached 80% confluence, the culture medium was decanted and 1 mL per well of fresh medium to the control wells or 1 mL per well of the test medium with methotrexate at a concentration of 10 µM or a derivative of methotrexate at a concentration of 10 µM, respectively, was added. The plate was wrapped in foil and incubated for 2 hours in an incubator. After this time, the medium was decanted, and each well was washed with 2x1 mL of PBS at room temperature. Then, the plate was placed on ice and 500 µL of a 3:1 mixture of methanol and ultrapure water at -20 °C were applied to each well. The mixture was pipetted several times in each well and collected in a test tube. Then, the procedure was repeated and the prepared samples (each with a volume of 1 mL) were placed in a lowtemperature freezer at -80 °C. The next day, the samples were concentrated in a vacuum concentrator until the samples were completely dry. Prior to analysis, the solvent for MS analysis (Xevo G2 Q-TOF MS) was added to the sample. In figure 7 it can be seen that in case of MTX the surface area of MCF7 tumor cells grown with MTX is about 308 units, and when using a compound according to the invention (identified as 77_1 in Figure 7) it is 525, i.e. about 1.7 times less than in the case of a conjugate. […]

For series [3], the system named is A427 lung cancer tumor cells. In words: MS analysis of intracellular accumulation, A427. The class given is cell-based. The settings on record: 10 µM, 2 hours incubation. As for the experimental part: as §2
For series [4] the following is noted: male, BALB/ccmdb, mouse, in vivo, iv. As for the experimental part:
The pharmacokinetic profile of the glucose-methotrexate derivative according to the invention (GMTX; chemical formula: C42H58N16O15) was examined in relation to the profile of the classical form of this drug (MTX) after a single intravenous administration into the tail vein. The solutions administered to the animals were prepared on the day of administration.
GMTX was administered to mice intravenously via the tail vein, in a single dose, in the form of solutions (with concentrations ensuring that the animals are dosed appropriately) prepared in 5% DMSO and saline in the 1:20 ratio, in a volume not exceeding 0.2 cm^3/mouse. […]
Mice were administered intravenously (i.v.) GMTX and MTX and blood was collected (to obtain plasma) at 4 time points after injection (1 h, 2 h, 4 h and 8 h), as well as in the so-called time 0 (blood sampling from animals that received neither MTX nor GMTX). […] Another 16 males were administered GMTX at a dose of 400 mg/kg body weight, constituting ½ the MTD of this compound (determined in our study with the code T425/001/2020), and the remaining 8 subjects were not administered either classic MTX nor its glycoconjugate (GMTX). […]
The results of MTX and GMTX concentrations in the plasma of mice were statistically analyzed using the Statistica 13 computer program. The results were expressed as the mean concentration (± standard deviation - SD) at individual time points. […]

The conditions of series [5]: administered intravenously, cited from earlier work.
The conditions of series [6]: cited from earlier work.

On to `CN(Cc1cnc2nc(N)nc(N)c2n1)c1ccc(C(=O)N[C@@H](CCC(=O)O)C(=O)O)cc1` [MTX, Methotrexate], for which the IC50 in the series on MCF-7 (breast) came to 9.61 ± 0.12 µM; in the series on DLD-1 (large intestine), 6.85 ± 0.21 µM; with MG-63 (bone sarcoma), 61 ± 0.76 µM; in series [1] it was 16.9 ± 1.94 µM. Further, the “surface area (MS analysis)” value in series [2] was “about 308 units”. For the same molecule, the “surface area of MTX, times less than in the case of a conjugate” value in [2] is “about 1.7 times”. The “surface area of MTX, times smaller compared to that of the conjugate” value in series [3] worked out at 1.7 times. Further, in [4], the “eliminated from the systemic circulation (time)” value was no more than 4 h. Also, the MTD in series [5] (mice of the BALB/c strain, Moura et al. 2011) is on record as 94 mg/kg b.w. The LD50 in series [5] (mice) is listed as 65 mg/kg b.w. The figures for the bioavailability in series [6] (in high doses) and in series [6] (in low doses) were 10-20% and “almost complete”, respectively. In addition, in series [6] (in vivo), the plasma half-life is 5 to 8 h.
